The values that follow come from patent US20050020544A1, “Bicyclic CB2 cannabinoid receptor ligands” (priority 2002, published 2005).

Broadly, the IC50 is the concentration needed to halve the response being measured. One may read the inhibition as how much of the control response was suppressed.

Read-outs that look alike come from different tables or passages of the source.

The target in one test is human CB2 receptor (Homo sapiens, UniProt P34972). The test is described as follows: biochemical. It is filed as binding. Details: purchased Perkin Elmer/NEN; host or cells: CHO cells, stably transfected (membranes). Conditions: for CB2/CB1 affinity ratio: IC50 CB1/IC50 CB2; for IC50: displacement of [3H]WIN 55212-2, hCB2 CHO membranes. As to the method: (§1) In the present invention, binding affinity is represented by the IC50 value, namely the concentration of a test compound that will displace 50% of a radiolabeled agonist from the CB receptors. […] Preferably these ratios will be obtained for human CB1 and CB2 receptors. The selectivity toward CB2, denoted CB2/CB1 affinity, is calculated as the IC50 value obtained by the test compound for the displacement of the CB1 specific radioligand divided by the IC50 value obtained for the displacement of the CB2 specific radioligand, i.e. the IC50 CB1/IC50 CB2.
Sequence of human CB2 receptor (P34972 whole entry): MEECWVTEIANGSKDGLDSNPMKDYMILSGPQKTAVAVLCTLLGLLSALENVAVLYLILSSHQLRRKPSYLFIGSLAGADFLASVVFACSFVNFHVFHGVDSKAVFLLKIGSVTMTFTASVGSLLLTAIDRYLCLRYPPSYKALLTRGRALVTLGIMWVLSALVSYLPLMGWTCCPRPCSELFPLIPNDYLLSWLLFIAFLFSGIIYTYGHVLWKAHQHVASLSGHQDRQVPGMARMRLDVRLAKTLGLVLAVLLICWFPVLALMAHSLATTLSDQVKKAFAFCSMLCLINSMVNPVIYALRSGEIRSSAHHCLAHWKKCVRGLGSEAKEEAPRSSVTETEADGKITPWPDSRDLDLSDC
The affinities of the novel bicyclic analogs to the CB2 receptor were determined by their ability to displace [^3H]WIN 55212-2 from the receptor in membranes derived from hCB2 stably transfected CHO cells (Perkin Elmer/NEN). Membranes were diluted in assay buffer (10 mM HEPES, 1 mM MgCl2, 1 mM EDTA, 0.3 mg/ml BSA, pH=7.4) to 500 μg protein/ml. 50 μl of diluted membranes (25 μg) were incubated with 0.8 nM of [^3H]WIN 55212-2 in the presence or absence of several concentrations of the bicyclic test compounds in a total volume of 1 ml. Tested compounds were dissolved and diluted as previously described for the hCB1 assay. Non-specific binding was measured by the addition of 10 μM CP 55940. Following 40 minutes incubation at 30° C. reactions were filtered as previously described. Filters for all binding assays were counted in a β-counter and log of analog concentration versus % of binding was plotted. IC50 values were extrapolated from this plot.
(§2) Binding to CB1 is measured by competitive inhibition of [^3H]CP55940 in HEK-293 cells stably transfected with the human CB1 receptor gene. Binding to CB2 is measured by competitive inhibition of [^3H]WIN55212-2 in CHO cells stably transfected with the human CB2 receptor gene.
In general terms: Loss of bound radioactivity is the signal in a displacement assay; it reports binding, not function.

Test [1] concerns IL-1β secretion from activated RAW 264.7 macrophages. The test is described as follows: Inhibition of IL-1β in LPS activated macrophages (ELISA). It is filed as cell-based. Conditions: Mus musculus; for inhibition at 10 µM: RAW264.7, 24 h, read-out: inhibition of IL-1β secretion. As to the method: The technique used to quantify the amount of a given protein in a liquid sample, either tissue culture supernatant or body fluid, is based on Enzyme Linked ImmunoSorbent Assay (ELISA) methodology. Either commercially available or established in house, the assay is based on the capture of the protein of interest by specific antibodies bound to the bottom of an ELISA plate well. […] Again the unbound material is washed away, the samples are then incubated with the appropriate substrate yielding a calorimetric reaction. The reaction is stopped and reading is performed in a spectrophotometer at the appropriate wavelength. Samples are tested at least in duplicate and the appropriate standard curve, consisting of serial dilutions of the recombinant target protein, is incorporated on each plate. Concentration of the protein in the sample is calculated from the standard curve.
RAW 264.7 macrophages, a mouse cell line (ATCC # TIB-71), were grown in Dulbecco's modified Eagle's medium (DMEM) with 4 mM L-glutamine adjusted to contain 1.5 g/L sodium bicarbonate, 4.5 g/L glucose, and 10% heat inactivated fetal bovine serum. Cells were grown in tissue culture flasks and seeded at appropriate density into 24 wells tissue culture plates. 0.5×10^6 Raw cells in one milliliter were stimulated with 2 μg/ml Lipopolysaccharide E. coli 055:B5 (DIFCO Laboratories). The mouse macrophages were pre-treated for one hour with controls or 10 μM of bicyclic CB2 ligands and later on activated with LPS. Dexamethasone was used as a positive control at 50 nM. Supernatant was collected 4 hours (for PGE2) and 24 hours (for IL-1β and TNF-α) after activation, and the levels of the inflammatory agent under study were determined by ELISA, as previously described. Inhibition was calculated versus vehicle treated cells.
On the technique in general: An ELISA detects its analyte on a solid surface through an enzyme-linked reagent.

In another test the target is T1, human CB1 receptor (Homo sapiens, UniProt P21554).
T1 construct: purchased Perkin Elmer/NEN; host or cells: HEK-293 cells, stably transfected (membranes)
T1 sequence (P21554 whole entry): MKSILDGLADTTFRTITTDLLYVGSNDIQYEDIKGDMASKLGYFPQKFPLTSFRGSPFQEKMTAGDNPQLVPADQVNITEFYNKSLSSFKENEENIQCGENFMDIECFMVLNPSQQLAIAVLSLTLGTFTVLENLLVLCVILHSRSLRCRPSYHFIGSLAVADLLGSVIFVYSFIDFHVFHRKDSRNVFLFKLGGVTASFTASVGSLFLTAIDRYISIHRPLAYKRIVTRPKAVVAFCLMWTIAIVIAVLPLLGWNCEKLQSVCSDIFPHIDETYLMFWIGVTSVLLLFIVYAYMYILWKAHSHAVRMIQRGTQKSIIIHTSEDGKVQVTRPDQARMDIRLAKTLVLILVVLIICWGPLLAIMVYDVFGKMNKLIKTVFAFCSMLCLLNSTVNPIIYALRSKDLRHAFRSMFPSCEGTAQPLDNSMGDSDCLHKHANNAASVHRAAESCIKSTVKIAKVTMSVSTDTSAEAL
The test is described as follows: biochemical. It counts as binding. The conditions noted are these: displacement of [3H]CP55940, hCB1 HEK-293 membranes; read-out: CB1 IC50. As to the method:
as §1
The CB1 binding assays were performed by testing the ability of the new compounds to displace [^3H]CP55940 from the CB1 receptor on membranes derived from hCB1 stably transfected HEK-293 cells (Perkin Elmer/NEN). Membranes were diluted in the assay buffer (50 mM Tris-HCl, 2.5 mM EDTA, 5 mM MgCl2, 1 mg/ml BSA, pH=7.4) to 500 μg protein/ml. 50 μl of diluted membranes (25 μg) were incubated with [^3H]CP55940 in the presence or absence of the bicyclic test compounds in a total volume of 0.5 ml. Tested compounds were dissolved in DMSO and diluted in the assay buffer to a final concentration of 0.1% solvent. Control samples were added with identical amount of vehicle. Non-specific binding was measured by the addition of 10 μM of WIN 55212-2. Following 1.5 hours incubation at 30° C. reactions were filtered through Whatman 934A/H filters (presoaked with 0.1% Polyethylenimine (PEI)).
as §2

The test system of a further test is Female Balb/c mice. How it is done: The purpose of this study is to test in vivo the anti-inflammatory activity of the compounds in paw edema induced by injection of 1% carrageenan in the animal hind paw. Female Balb/c mice (20 g average body weight, Harlan, Israel) are anesthetized with a combination of xylazine and pentobarbitone diluted in sterile saline, 15 and 6 mg/kg i.p. respectively. Anesthetized mice are injected subcutaneously, in the subplantar region of one (right) paw with 0.05 ml of 1% w/v Carrageenan in sterile water. […] The test compounds, including known anti-inflammatory controls, are dissolved in CREMOPHOR EL®:ethanol and further diluted 1:20 or 1:50 in sterile saline prior to i.p. injection that takes place immediately before the carrageenan injection. Three hours after injection the animals are resedated following the previously described procedure. Paw thickness is measured using a dial thickness gauge (Spring-dial, constant low pressure gauge, Mitutoyo, TG/L-1, 0.01 mm) and paw volume is measured using a plethysmometer (model #7150, Ugo Basile, Italy). Paw Edema is expressed as the difference between the right treated and the left untreated paws of the same animal, either as Δ Paw Volume (ΔPV) in millimeters cube or as Δ Paw Thickness (ΔPT) in millimeters. Each group comprises at least 10 animals. […] At the end of the study, animals are euthanized with an i.p. injection of 100 mg/kg pentobarbitone.
The differences among various treatment groups are analyzed by analysis of variance (ANOVA) followed by post-hoc Fisher test. A value of p<0.05 is considered to be statistically significant.
For sake of comparison, known anti-inflammatory drugs such as Celecoxib and Dexamethasone yield respectively in the range of relevant doses 7% and 26% reduction in paw thickness at 0.1 mg/kg, 16% and 31% at 0.25 mg/kg and 24% and 33% at 0.5 mg/kg. […] It should be kept in mind that these commercially available drugs display serious side effects that prevent chronic uses without complementary protective medication.

For a further test, the system named is Adult female BALB/c mice. It counts as in vivo, mouse. The conditions noted are these: i.p. twice. How it is done: Adult female BALB/c mice (20 g average body weight, Harlan, Israel) were sensitized on day 0 and day 1 by application of 30 μl of 0.15% Dinitrofluorobenzene (DNFB) diluted in acetone on the shaved skin of the abdomen. On day 6 the animals were challenged by application of 10 μl of DNFB in acetone on one ear. The contralateral ear was not challenged but received the application of 10 μl acetone. Test compounds were administered at increasing doses from 0 to 15 mg/kg i.p. twice, the first injection was immediately after DNFB challenge (on day 6) and the second injection was 16 hours post challenge (on day 7). Each treatment group comprised at least 7 animals. Dexamethasone (DXM) was used as positive control. Ear thickness was determined (in 0.01 mm units) 24 hours after challenge (and 6 hours after second treatment on day 7) using a dial thickness gauge (Mitutoyo, Japan).
Results are analyzed as ear thickness of DNFB treated over DNFB untreated contralateral ear. The impact of the test compound was further assessed by comparing its mean impact on the animals of the treatment group to the response generated by the appropriate vehicle only.

A further test deals with Lewis rats. It counts as in vivo, rat. Conditions: 30 mg/kg i.v., 5 times before the disease onset. As to the method: Various animal models of autoimmune encephalomyelitis are known in the art, depending on the method of induction, the strain of the animal and the antigen employed to induce the disease. The impact of bicyclic CB2 ligands was tested in EAE using Lewis rats in which the onset of disease is observed by the appearance of clinical symptoms about 10 days after induction. The disease progress and the clinical score increase and peak around day 15 and spontaneous recovery is observed around day 18 after induction of the disease. The animals (at least 9 per test group at initiation of study, except for the untreated control group that comprised only 5 rats) were maintained on a 12 hours light/12 hours dark regimen, at a constant temperature of 22° C., with food and water ad libitum. EAE was induced in these animals by immunization with s.c. injection to the hind paws of 25 μg of purified guinea pig myelin basic protein (MBP, Sigma) emulsified in 0.1 ml of Complete Freund's Adjuvant (Difco).
Methylprednisolone was used as positive control and it was administered daily for 5 consecutive days i.v. at 30 mg/kg starting from day of disease induction by MBP injection. The results are recorded as clinical score; score of 0 indicates a normal animal with no clinical signs, 0.5 indicates a loss of tonicity in the tail's distal part, 1 indicates whole tail paralysis, 2 indicates paraplegia, 3 indicates quadriplegia, 4 indicates complete body paralysis and moribund state and 5 indicates death. The clinical score of the animals is recorded for 11 days following onset of disease and the area under the curve (AUC) is calculated over this period of time.
Moreover, in a separate study animals were euthanized 15 days after induction of the disease by i.p. injection of 100 mg/kg pentobarbital. Brains and spinal cord were removed and were fixed by overnight incubation with 4% Paraformaldehyde. The cervical segment of the spinal cord was dehydrated using ethanol solutions of increasing concentration and then embedded in paraplast. The spinal cord was then sectioned (10 μm) and staining was performed using hematoxylin and eosin. The stained slides were examined under light microscopy for foci of infiltrating lymphocytes. Number of foci were counted and averaged in 6 sections for each animal. Three groups of at least 4 animals each were tested in this system: untreated, vehicle treated, and animals treated with 0.5 mg/kg of compound A. Results are expressed as average±SD of number of foci.

As to `CCCCCCC(C)(C)c1cc(OC)c(C2CC(=O)C3CC2C3(C)C)c(OC)c1` (single isomer, unassigned; (-)) [Compound B, (−)-4-[4-(1,1-Dimethyl-heptyl)-2,6-dimethoxy-phenyl]-6,6-dimethyl-bicyclo[3.1.1]heptan-2-one], on human CB2 receptor, the CB2/CB1 affinity ratio stood at 62 and the 50% inhibitory concentration (IC50) was 45 nM. In addition, in test [1], the inhibition at 10 µM stood at 34%. At human CB1 receptor, the half-maximal inhibitory concentration (IC50) is 2800 nM.
Taken in the same sequence, the figures for `CCCCCCC(C)(C)c1cc(O)c(C2CC(O)C3CC2C3(C)C)c(O)c1` (single isomer, unassigned; (-)) [Compound C, (−)-5-(1,1-Dimethyl-heptyl)-2-(4-hydroxy-6,6-dimethylbicyclo[3.1.1]hept-2-yl)-benzene-1,3-diol] were 9, 3.5 nM, 26% and 31 nM.
Take `CCCCCCC(C)(C)c1cc(O)c([C@H]2C/C(=N/O)[C@H]3C[C@@H]2C3(C)C)c(O)c1` [Compound D]: the CB2/CB1 affinity ratio at human CB2 receptor is recorded as 27. The concentration for half-maximal inhibition (IC50) on human CB2 receptor is 3.4 nM; on human CB1 receptor, 93 nM. Besides, the inhibition at 10 µM in test [1] is 67%.
For `C[C@@H]1C[C@H]2[C@@H]3CCC4=CC(=O)C=C[C@]4(C)[C@@]3(F)[C@@H](O)C[C@]2(C)[C@@]1(O)C(=O)CO` [Dexamethasone, reference compound], in test [1] (RAW264.7, positive control at 50 nM, 24 hours after LPS activation), the inhibition at 0.05 µM was determined as 97%. For the same compound, the “reduction in paw thickness” value came to 26% in the test on Female Balb/c mice (0.1 mg/kg), 31% in the test on Female Balb/c mice (0.25 mg/kg) and 33% in the test with Female Balb/c mice (0.5 mg/kg). The “calculated IC50 reduction in ear thickness” value in the test on Adult female BALB/c mice is 3.2 mg/kg. In the test with Adult female BALB/c mice (doses 0 to 15 mg/kg, 24 hours after challenge), the “maximal inhibition (reduction in ear thickness)” value is on record as “around 80%”.
On to `C[C@H]1C[C@@H]2[C@H]([C@@H](O)C[C@@]3(C)[C@H]2CC[C@]3(O)C(=O)CO)[C@@]2(C)C=CC(=O)C=C12` [Methylprednisolone, reference compound], for which the “reduction in the AUC of the clinical score” value with Lewis rats turned out to be 34%.
